Experimental data published in the Kinase Knowledgebase extract (Sharma et al. 2016).

What follows are molecules tested against CDK2 (human) (UniProt P24941) (assay: Enzyme Assay).

| Compound | IC50 [nM] |
| --- | --- |
| CCc1[nH]nc2c1N=C(c1ccccc1Cl)c1cc([N+](=O)[O-])ccc1N2 | 10 to 990 |
| Cc1[nH]nc2c1N=C(c1ccccc1)c1ccccc1N2 | 10 to 990 |
| O=[N+]([O-])c1cccc(C2=Nc3c[nH]nc3Nc3ccc([N+](=O)[O-])cc32)c1 | 10 to 990 |
| NC(=O)c1ccc2c(c1)C(c1ccccc1F)=Nc1c[nH]nc1N2 | 10 to 990 |
| O=[N+]([O-])c1ccc2c(c1)C(c1ccccc1Cl)=Nc1c(n[nH]c1-c1cccnc1)N2 | 10 to 990 |
| Cc1[nH]nc2c1N=C(c1ccccc1F)c1ccccc1N2 | 10 to 990 |
| O=[N+]([O-])c1ccc2c(c1)C(c1ccccc1Cl)=Nc1c(n[nH]c1C1CC1)N2 | 10 to 990 |
| O=[N+]([O-])c1ccc2c(c1)C(c1ccccc1)=Nc1c(n[nH]c1C1CC1)N2 | 10 to 990 |
| Cc1[nH]nc2c1N=C(c1ccccc1Cl)c1ccccc1N2 | 10 to 990 |
| Cc1cccc(S)c1-c1[nH]nc2c1N=C(c1ccccc1Cl)c1cc([N+](=O)[O-])ccc1N2 | 10 to 990 |
| O=[N+]([O-])c1ccc2c(c1)C(c1ccccc1C(F)(F)F)=Nc1c[nH]nc1N2 | 10 to 990 |
| Cc1[nH]nc2c1N=C(c1ccccc1)c1cc(F)ccc1N2 | 10 to 990 |
| O=[N+]([O-])c1ccc2c(c1)C(c1ccccc1Cl)=Nc1c(n[nH]c1-c1ccc[nH]1)N2 | 10 to 990 |
| Cc1[nH]nc2c1N=C(c1ccccc1F)c1cc(I)ccc1N2 | 10 to 990 |
| Cc1[nH]nc2c1N=C(c1ccccc1Cl)c1cc([N+](=O)[O-])ccc1N2 | 10 to 990 |
| CCC(C)c1[nH]nc2c1N=C(c1ccccc1Cl)c1cc([N+](=O)[O-])ccc1N2 (stereo not drawn) | 10 to 990 |
| C=CC(=O)Nc1ccc2c(c1)C(c1ccccc1Cl)=Nc1c(n[nH]c1C)N2 | 10 to 990 |
| CCCc1[nH]nc2c1N=C(c1ccccc1Cl)c1cc([N+](=O)[O-])ccc1N2 | 10 to 990 |
| Cc1[nH]nc2c1N=C(c1ccccc1C(F)(F)F)c1cc([N+](=O)[O-])ccc1N2 | 10 to 990 |
| O=[N+]([O-])c1ccc2c(c1)C(c1ccccc1Cl)=Nc1c(n[nH]c1-c1cc[nH]n1)N2 | 10 to 990 |
| O=[N+]([O-])c1ccc2c(c1)C(c1ccccc1Cl)=Nc1c(n[nH]c1-c1c[nH]cn1)N2 | 10 to 990 |
| COc1ccc2c(c1)C(c1ccccc1Cl)=Nc1c(n[nH]c1C)N2 | 10 to 990 |
| N#Cc1ccc2c(c1)C(c1ccccc1F)=Nc1c[nH]nc1N2 | 10 to 990 |
| CCOC(=O)c1ccc2c(c1)C(c1ccccc1F)=Nc1c(n[nH]c1C)N2 | 10 to 990 |
| Cc1[nH]nc2c1N=C(c1ccccc1F)c1cc([N+](=O)[O-])ccc1N2 | 10 to 990 |

| Compound | IC50 [nM] |
| --- | --- |
| Cc1[nH]nc2c1N=C(c1ccccc1Cl)c1cc(N)ccc1N2 | 10 to 990 |
| O=[N+]([O-])c1ccc2c(c1)C(c1ccccc1Cl)=Nc1c[nH]nc1N2 | 10 to 990 |
| Cc1[nH]nc2c1N=C(c1ccccc1Cl)c1cc(NS(=O)(=O)N(C)C)ccc1N2 | 10 to 990 |
| O=[N+]([O-])c1ccc2c(c1)C(c1ccccc1F)=Nc1c[nH]nc1N2 | 10 to 990 |
| N#Cc1[nH]nc2c1N=C(c1ccccc1Cl)c1cc([N+](=O)[O-])ccc1N2 | 10 to 990 |
| Cc1[nH]nc2c1N=C(c1ccccc1F)c1cc(C(=O)N3CCOCC3)ccc1N2 | 10 to 990 |
| O=[N+]([O-])c1ccc2c(c1)C(c1ccccc1Cl)=Nc1c(n[nH]c1CO)N2 | 10 to 990 |
| O=[N+]([O-])c1ccc2c(c1)C(c1ccccc1Cl)=Nc1c(n[nH]c1-c1cccc3c1OCO3)N2 | 10 to 990 |
| C=Cc1[nH]nc2c1N=C(c1ccccc1Cl)c1cc([N+](=O)[O-])ccc1N2 | 10 to 990 |
| NC(=O)c1[nH]nc2c1N=C(c1ccccc1Cl)c1cc([N+](=O)[O-])ccc1N2 | 10 to 990 |
| CSc1ccc(-c2[nH]nc3c2N=C(c2ccccc2Cl)c2cc([N+](=O)[O-])ccc2N3)cc1 | 10 to 990 |
| Cc1[nH]nc2c1N=C(c1ccccc1Cl)c1cc(NS(C)(=O)=O)ccc1N2 | 10 to 990 |
| CC(C)c1[nH]nc2c1N=C(c1ccccc1Cl)c1cc([N+](=O)[O-])ccc1N2 | 10 to 990 |
| CCOC(=O)c1ccc2c(c1)C(c1ccccc1F)=Nc1c[nH]nc1N2 | 10 to 990 |
| NNC(=O)c1[nH]nc2c1N=C(c1ccccc1Cl)c1cc([N+](=O)[O-])ccc1N2 | 10 to 990 |
| O=[N+]([O-])c1ccc2c(c1)C(c1ccccc1Cl)=Nc1c(n[nH]c1-c1ccco1)N2 | 10 to 990 |
| Cc1[nH]nc2c1N=C(c1ccccc1F)c1cc(C(=O)NCCO)ccc1N2 | 10 to 990 |
| O=C(c1ccc2c(c1)C(c1ccccc1F)=Nc1c[nH]nc1N2)N1CCOCC1 | 10 to 990 |
| O=Cc1[nH]nc2c1N=C(c1ccccc1Cl)c1cc([N+](=O)[O-])ccc1N2 | 10 to 990 |
| Cc1[nH]nc2c1N=C(c1ccccc1Cl)c1cc(Cl)ccc1N2 | 10 to 990 |
| O=[N+]([O-])c1ccc2c(c1)C(c1ccccc1)=Nc1c[nH]nc1N2 | 10 to 990 |
| Clc1ccccc1C1=Nc2c[nH]nc2Nc2ccccc21 | 10 to 990 |
| O=[N+]([O-])c1ccc2c(c1)C(c1ccccc1Cl)=Nc1c(n[nH]c1-c1ccccc1S)N2 | 10 to 990 |
| O=[N+]([O-])c1ccc2c(c1)C(c1ccccc1Cl)=Nc1c(n[nH]c1-c1ccc(OC(F)(F)F)cc1)N2 | 10 to 990 |
| Cc1[nH]nc2c1N=C(c1ccccc1F)c1cc(Cl)ccc1N2 | 10 to 990 |

| Compound | IC50 [nM] |
| --- | --- |
| O=[N+]([O-])c1ccc2c(c1)C(c1ccccc1Cl)=Nc1c(n[nH]c1-c1ccncc1)N2 | 10 to 990 |
| Cc1[nH]nc2c1N=C(c1ccccc1Cl)c1cc(NS(=O)(=O)N3CCOCC3)ccc1N2 | 10 to 990 |
| COc1cc(O)ccc1-c1[nH]nc2c1N=C(c1ccccc1Cl)c1cc([N+](=O)[O-])ccc1N2 | 10 to 990 |
| Cc1cn[nH]c1-c1[nH]nc2c1N=C(c1ccccc1Cl)c1cc([N+](=O)[O-])ccc1N2 | 10 to 990 |
| O=[N+]([O-])c1ccc2c(c1)C(c1ccccc1Cl)=Nc1c(n[nH]c1-c1cccc(S)c1)N2 | 10 to 990 |
| CC(C)c1[nH]nc2c1N=C(c1ccccc1Cl)c1cc(N)ccc1N2 | 10 to 990 |
| Cc1[nH]nc2c1N=C(c1ccccc1Cl)c1cc(NS(=O)(=O)NCCl)ccc1N2 | 10 to 990 |
| O=C(NCCO)c1ccc2c(c1)C(c1ccccc1F)=Nc1c[nH]nc1N2 | 10 to 990 |
| CC(=O)Nc1ccc2c(c1)C(c1ccccc1Cl)=Nc1c(n[nH]c1C)N2 | 10 to 990 |
| O=[N+]([O-])c1ccc2c(c1)C(c1ccccc1Cl)=Nc1c(n[nH]c1-c1ccc(-c3ccccc3)cc1)N2 | 10 to 990 |
| O=[N+]([O-])c1ccc2c(c1)C(c1ccccc1Cl)=Nc1c(n[nH]c1-n1cccn1)N2 | 10 to 990 |
| COCc1[nH]nc2c1N=C(c1ccccc1Cl)c1cc([N+](=O)[O-])ccc1N2 | 10 to 990 |
| Cc1[nH]nc2c1N=C(c1ccccc1F)c1cc(C(N)=O)ccc1N2 | 10 to 990 |
| Cc1[nH]nc2c1N=C(c1ccccc1F)c1cc(F)ccc1N2 | 10 to 990 |
| O=[N+]([O-])c1cccc(-c2[nH]nc3c2N=C(c2ccccc2Cl)c2cc([N+](=O)[O-])ccc2N3)c1 | 10 to 990 |
| O=[N+]([O-])c1ccc2c(c1)C(c1ccccc1Cl)=Nc1c(n[nH]c1C(F)(F)F)N2 | 10 to 990 |
| Cc1[nH]nc2c1N=C(c1ccccc1)c1cc(Cl)ccc1N2 | 10 to 990 |
| Cc1[nH]nc2c1N=C(c1ccccc1F)c1cc(C#N)ccc1N2 | 10 to 990 |
| Cc1[nH]nc2c1N=C(c1ccccc1)c1cc([N+](=O)[O-])ccc1N2 | 10 to 990 |
| O=[N+]([O-])c1ccc2c(c1)C(c1ccccc1Cl)=Nc1c(n[nH]c1-c1nccs1)N2 | 10 to 990 |
| N#Cc1ccc2c(c1)C(c1ccccc1F)=Nc1c(n[nH]c1CO)N2 | 10 to 990 |
| O=[N+]([O-])c1ccc2c(c1)C(c1ccccc1Cl)=Nc1c(n[nH]c1-c1ccccc1)N2 | 10 to 990 |
| Cc1[nH]nc2c1N=C(c1ccccc1F)c1cc(C(=O)NCCN3CCOCC3)ccc1N2 | 10 to 990 |
